Moisture uptake data for 7 molecules are collected here from patent US20120115865A1, “New Salts of an Indole Derivative and Their Use in Medicine” (priority 2006, published 2012).

Counter-ions that a name gives are not always drawn.

This series in a line: Hygroscopicity by Dynamic Vapour Sorption Analysis (DVS). Conditions: 25° C. The format is physicochemical. The procedure:
Dynamic Vapour Sorption Analysis (DVS)
The studies were undertaken using Dynamic Vapour Sorption Appararatus (DVS, Surface Measurement Systems, London UK). The apparatus consists of Cahn micobalance housed inside a temperature-controled cabinet. All experiments were performed at 25° C. The DVS was used to characterize the moisture uptake (% w/w) at different relative humidities (RH). Samples (5-10 mg) were weighed directly into the DSV sample cup and exposed to different relative humidities.

Consider “2-Hydroxy-3-[5-(morpholin-4-ylmethyl)pyridin-2-yl]1H-indole-5-carbonitrile edisylate”, for which the moisture uptake runs as follows: (relative humidity 40%) 5.1 % w/w; (relative humidity 60%) 6.6 % w/w; (relative humidity 80%) 8.2 % w/w.

Take `CCS(=O)(=O)O.N#Cc1ccc2[nH]c(O)c(-c3ccc(CN4CCOCC4)cn3)c2c1` [Esylate, 2-Hydroxy-3-[5-(morpholin-4-ylmethyl)pyridin-2-yl]1H-indole-5-carbonitrile esylate]: the moisture uptake by setting is: (relative humidity 40%) 0.5 % w/w; (relative humidity 60%) 0.8 % w/w; (relative humidity 80%) 1.2 % w/w.

For `N#Cc1ccc2[nH]c(O)c(-c3ccc(CN4CCOCC4)cn3)c2c1.O=C(O)/C=C/C(=O)O` [Fumarate, 2-hydroxy-3-[5-(morpholin-4-ylmethyl)pyridin-2-yl]1H-indole-5-carbonitrile fumarate], the moisture uptake (relative humidity 40%) turned out to be 3.8 % w/w, the moisture uptake (relative humidity 60%) was 4.5 % w/w and the moisture uptake (relative humidity 80%) is recorded as 5.1 % w/w.

Molecule `N#Cc1ccc2[nH]c(O)c(-c3ccc(CN4CCOCC4)cn3)c2c1` [HCl, 2-hydroxy-3-[5-(morpholin-4-ylmethyl)pyridin-2-yl]1H-indole-5-carbonitrile, reference compound] gave a moisture uptake (relative humidity 40%) of 8.7 % w/w, a moisture uptake (relative humidity 60%) of 11.5 % w/w and a moisture uptake (relative humidity 80%) of 13.0 % w/w.

As to `N#Cc1ccc2[nH]c(O)c(-c3ccc(CN4CCOCC4)cn3)c2c1.O=C(O)/C=C\C(=O)O` [Maleate, 2-hydroxy-3-[5-(morpholin-4-ylmethyl)pyridin-2-yl]1H-indole-5-carbonitrile maleate], the moisture uptake is recorded as 1.7 % w/w (relative humidity 40%), 2.2 % w/w (relative humidity 60%) and 2.7 % w/w (relative humidity 80%).

As to `CS(=O)(=O)O.N#Cc1ccc2[nH]c(O)c(-c3ccc(CN4CCOCC4)cn3)c2c1` [Mesylate, 2-Hydroxy-3-[5-(morpholin-4-ylmethyl)pyridin-2-yl]1H-indole-5-carbonitrile mesylate], the moisture uptake came out at 0.7 % w/w (relative humidity 40%), 1.1 % w/w (relative humidity 60%) and 1.6 % w/w (relative humidity 80%).

`N#Cc1ccc2[nH]c(O)c(-c3ccc(CN4CCOCC4)cn3)c2c1.O=P(O)(O)O` [Phosphate, 2-hydroxy-3-[5-(morpholin-4-ylmethyl)pyridin-2-yl]1H-indole-5-carbonitrile phosphate]: the moisture uptake is reported as 4.1 % w/w (relative humidity 40%), 6.6 % w/w (relative humidity 60%) and 10.8 % w/w (relative humidity 80%).
